Reference: patent US7868204B2, “Inhibitors of histone deacetylase” (MethylGene Inc., priority 2001, dated 2011)
Like-named read-outs stand apart in the source and are kept apart here.

Legend:
[1] = molecular target: T1, cloned recombinant human HDAC-1 (Homo sapiens, UniProt Q13547); test: Human HDAC-1 enzyme inhibition, Assay 1 ([3H]-acetylated histone substrate, scintillation counting); assay type: biochemical; conditions: read-out: Human HDAC-1 IC50
T1 construct: made in house; host or cells: Baculovirus insect cell expression system
T1 sequence (Q13547 whole entry): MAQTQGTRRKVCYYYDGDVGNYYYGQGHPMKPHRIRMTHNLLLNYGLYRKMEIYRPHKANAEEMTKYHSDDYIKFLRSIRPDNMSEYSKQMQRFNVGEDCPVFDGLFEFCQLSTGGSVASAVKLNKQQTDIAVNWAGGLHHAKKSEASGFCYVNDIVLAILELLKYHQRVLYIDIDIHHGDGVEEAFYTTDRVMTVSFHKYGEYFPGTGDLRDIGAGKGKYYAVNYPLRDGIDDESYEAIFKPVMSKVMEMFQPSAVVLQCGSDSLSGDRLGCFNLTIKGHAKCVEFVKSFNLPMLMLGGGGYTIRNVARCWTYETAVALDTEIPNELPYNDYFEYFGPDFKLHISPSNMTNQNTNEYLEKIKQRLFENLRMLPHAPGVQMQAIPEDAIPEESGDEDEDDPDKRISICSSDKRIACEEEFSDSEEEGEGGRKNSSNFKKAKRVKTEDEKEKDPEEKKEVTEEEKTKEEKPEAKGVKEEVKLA
Method in brief: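 Activity read as [3H]-acetic acid liberated from labeled substrate, ethyl acetate-extracted and scintillation-counted. Compounds preincubated 30 min at 4° C. with baculovirus-expressed, purified human HDAC-1. Dose-response curves give IC50 as concentration producing fifty percent of maximal inhibition.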

HCT116 cells = test: MTT assay; assay type: cell-based; conditions: Homo sapiens
Method in brief: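 Read-out: MTT (0.5 mg/ml final, 4 h) after solubilization in 50% DMF/20% SDS, pH 4.7, with OD translated into cell number via the line's growth curve. Compound treatment lasted 72 h at 37 °C in 5% CO2, starting a day after plating.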

[2] = tested on: acetylated histone H-4 in T24 human bladder cancer cells; test: Histone H4 acetylation in whole cells by immunoblots; assay type: cell-based; conditions: 16 h
Method in brief: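 Acetylated histone H4 was quantified by densitometry of ECL-developed immunoblots, probed with a polyclonal antibody, of […] total histone from T24 cultures exposed 16 h to HDAC inhibitors.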

[3] = tested on: HCT116 human colorectal carcinoma cells; test: Antitumor activity in HCT116 human colorectal tumor xenograft model in vivo; design: species or system BALB/c nude mice; conditions: Mus musculus, ip, HCT 116 colorectal tumor model, read-out: % Inhibition of Tumor Growth; for inhibition in vivo at 40 mg/kg: 40 mg/kg i.p.; for inhibition in vivo at 20 mg/kg: 20 mg/kg i.p.
Procedure: Eight to ten week old female BALB/c nude mice (Taconic Labs, Great Barrington, N.Y.) were injected subcutaneously in the flank area with 2×10^6 preconditioned HCT116 human colorectal carcinoma cells. Preconditioning of these cells was done by a minimum of three consecutive tumor transplantations in the same strain of nude mice. Subsequently, tumor fragments of approximately 30 mgs were excised and implanted subcutaneously in mice, in the left flank area, under Forene anesthesia (Abbott Labs, Geneve, Switzerland). When the tumors reached a mean volume of 100 mm^3, the mice were treated intravenously, subcutaneously, or intraperitoneally by daily injection, with a solution of the histone deacetylase inhibitor in an appropriate vehicle, such as PBS, DMSO/water, or Tween 80/water, at a starting dose of 10 mg/kg. The optimal dose of the HDAC inhibitor was established by dose response experiments according to standard protocols. Tumor volume was calculated every second day post infusion according to standard methods (e.g., Meyer et al., Int. J. Cancer 43: 851-856 (1989)). […] FIGS. 2-10 show the results of additional compounds tested.

HDAC-1 = HDAC-1 (Homo sapiens, UniProt Q13547); test: Human HDAC-1 enzyme inhibition, Assay 2 (Boc-Lys(Ac)-AMC, Fluor-de-Lys fluorescence; compounds 604-617); assay type: biochemical; conditions: read-out: HDAC1 IC50
Sequence of HDAC-1 (Q13547 whole entry): as above
Procedure: Assay 2. The following protocol was also used to assay the compounds of the invention. In the assay, the buffer used was 25 mM HEPES, pH 8.0, 137 mM NaCl, 2.7 mM […], 1 mM MgCl2 and the substrate was Boc-Lys(Ac)-AMC in a 50 mM stock solution in DMSO. The enzyme stock solution was 4.08 μg/mL in buffer. The compounds were pre-incubated (2 μl in DMSO diluted to 13 μl in buffer for transfer to assay plate) with enzyme (20 μl of 4.08 μg/ml) for 10 minutes at room temperature (35 μl pre-incubation volume). The mixture was pre-incubated for 5 minutes at room temperature. The reaction was started by bringing the temperature to 37° C. and adding […] substrate. Total reaction volume was 50 μl. […] A plate was incubated in the dark for 10 minutes at room temperature before reading (λEx=360 nm, λEm=470 nm, Cutoff filter at 435 nm). Assay 2 was used to measure HDAC activity of compounds 604-617 (Table 5). HDAC activity of the remaining compounds was measured by assay 1.

[4] = HCT-116, 72 h, Table 5a, HCT116 cells, 72 hours
[5] = T-24, Table 5a, read-out: H4Ac (T24) EC50
[6] = HCT-116, 72 h, Table 5E, HCT116 cells, 72 hours
[7] = T-24, Table 5E, read-out: H4 Ac (T24) EC50
[8] = HCT-116, 72 h, Table 5F, HCT116 cells, 72 hours
[9] = T-24, Table 5F, read-out: H4 Ac (T24) EC50

| IC50 ([1]; Table 5F) [nM] | IC50 (HCT116 cells; [8]) [nM] | EC50 [2, 9] [nM] | SMILES | further results |
| --- | --- | --- | --- | --- |
| 2000 | 300 | 1000 | COc1ccc(N(Cc2ccc(C(=O)Nc3ccccc3N)cc2)C(=O)Nc2ccc(SC)cc2)cc1OC [compound 317, N-(2-Aminophenyl)-4-[1-(3,4-dimethoxyphenyl)-3-(4-methylsulfanylphenyl)-ureidomethyl]-benzamide] | – |
| 3000 | 100 | 1000 | COc1ccc2nc(SCc3ccc(C(=O)Nc4ccccc4N)cc3)[nH]c2c1 [compound 376, N-(2-Amino-phenyl)-4-(5-methoxy-1H-benzimidazol-2-yl-sulfanylmethyl)-benzamide] | – |
| 5000 | 800 | 2000 | COc1ccc(NCc2ccc3oc(C(=O)Nc4ccccc4N)cc3c2)cc1OC [compound 587, 5-[(3,4-Dimethoxy-phenylamino)-methyl]-benzofuran-2-carboxylic acid (2-amino-phenyl)-amide] | – |
| 2000 | 2000 | 3000 | COc1cc(CNc2ccc3sc(C(=O)Nc4ccccc4N)cc3c2)cc(OC)c1OC [compound 590, 5-(3,4,5-Trimethoxy-benzylamino)-benzo[b]thiophene-2-carboxylic acid (2-amino-phenyl)-amide] | – |

Continued, molecule first:

| SMILES | IC50 ([1]; Table 5F) [nM] | IC50 (HCT116 cells; [8]) [nM] | EC50 [2, 9] [nM] | further results |
| --- | --- | --- | --- | --- |
| Nc1nc(NCc2ccc(C(=O)Nc3ccccc3N)cc2)nc(N2CCOCC2)n1 [Cpd 9, 4-[(4-amino-6-morpholin-4-yl-[1,3,5]-triazin-2-ylamino)-methyl]-N-(2-amino-phenyl)-benzamide] | – | – | – | IC50 ([1]; Table 5a): 2000 nM; IC50 (HCT116 cells; [4]): 700 nM; EC50 [2, 5]: 5000 nM; inhibition in vivo at 40 mg/kg [3]: 51% |
| Nc1nc(NCc2ccc(C(=O)Nc3ccccc3N)cc2)nc(N2CCCCC2)n1 [Cpd 15, N-(2-amino-phenyl)-4-[(4-amino-6-piperidin-1-yl [1,3,5]-triazin-2-ylamino)-methyl]-benzamide] | – | – | – | IC50 ([1]; Table 5a): 500 nM; IC50 (HCT116 cells; [4]): 200 nM; EC50 [2, 5]: 3000 nM; inhibition in vivo at 40 mg/kg [3]: 26% |
| COc1cc(NCc2ccc(/C=C/C(=O)Nc3ccccc3N)cc2)cc(OC)c1OC [Cpd 106, N-(2-aminophenyl)-3-{4-[(3,4,5-trimethoxy-phenylamino)-methyl]-phenyl}-acrylamide] | – | – | – | IC50 (HCT116 cells; HCT-116, 72 h, Table 5c, HCT116 cells, 72 hours): 2000 nM; EC50 ([2]; T-24, Table 5c, read-out: H4Ac (T24) EC50): 1000 nM; inhibition in vivo at 20 mg/kg [3]: 80% |
| Nc1ccccc1NC(=O)c1ccc(CSc2nc3ccccc3[nH]2)cc1 [Cpd 126, N-(2-Amino-phenyl)-4-(1H-benzimidazol-2-ylsulfanylmethyl)-benzamide] | – | – | – | IC50 (HCT116 cells; [6]): 200 nM; EC50 [2, 7]: 1000 nM; inhibition in vivo at 40 mg/kg [3]: 62% |
| Nc1ccccc1NC(=O)c1ccc(Cn2c(=O)[nH]c3ccccc3c2=O)cc1 [Cpd 157, N-(2-Amino-phenyl)-4-(2,4-dioxo-1,4-dihydro-2H-quinazolin-3-ylmethyl)-benzamide] | – | – | – | IC50 (HCT116 cells; [6]): 600 nM; EC50 [2, 7]: 1000 nM; inhibition in vivo at 20 mg/kg [3]: 66% |
| COc1ccc(CCNc2ccc(C(=O)Nc3ccccc3N)cn2)cc1 [Cpd 168] | – | – | – | IC50 (HCT116 cells; [6]): 800 nM; EC50 [2, 7]: 2000 nM; inhibition in vivo at 40 mg/kg [3]: 26% |
| Nc1ccccc1NC(=O)c1ccc(Cc2coc3ccccc3c2=O)cc1 [compound 262, N-(2-Amino-phenyl)-4-(4-oxo-4H-chromen-3-ylmethyl)-benzamide] | 500 | 300 | 1000 | – |
| Nc1ccccc1NC(=O)c1ccc(CC2COc3ccccc3C2)cc1 (stereo not shown) [compound 265, N-(2-Amino-phenyl)-4-chroman-3-ylmethyl-benzamide] | 2000 | 2000 | 3000 | – |
| Nc1ccccc1NC(=O)c1ccc(CC2Oc3ccccc3NC2=O)cc1 (stereo not shown) [compound 270, N-(2-Amino-phenyl)-4-(3-oxo-3,4-dihydro-2H-benzo[1,4]oxazin-2-ylmethyl)-benzamide] | 4000 | 1000 | 5000 | – |
| Nc1ccccc1NC(=O)c1ccc(CC2Cc3ccccc3C2=O)cc1 (stereo not shown) [compound 272, N-(2-Amino-phenyl)-4-(1-oxo-indan-2-ylmethyl)-benzamide] | 2000 | 600 | < 1000 | – |
| Nc1ccccc1NC(=O)c1ccc(CC2Cc3ccccc3C2O)cc1 (stereo not shown) [compound 275, N-(2-Amino-phenyl)-4-(1-hydroxy-indan-2-ylmethyl)-benzamide] | 4000 | 900 | 2000 | – |
| Cc1nn(-c2ccccc2)c(C)c1Cc1ccc(C(=O)Nc2ccccc2N)cc1 [compound 277, N-(2-Amino-phenyl)-4-(3,5-dimethyl-1-phenyl-1H-pyrazol-4-ylmethyl)-benzamide] | 4000 | 300 | 1000 | – |
| CC(=O)Nc1sc(Cc2ccc(C(=O)Nc3ccccc3N)cc2)c(C)c1C#N [compound 281, N-(2-Amino-phenyl)-4-(5-acetylamino-4-cyano-3-methyl-thiophen-2-ylmethyl)-benzamide] | 500 | 600 | 1000 | – |
| COc1cc(N2CC(c3ccc(C(=O)Nc4ccccc4N)cc3)OC2=O)cc(OC)c1OC (stereo not shown) [compound 297, N-(2-Amino-phenyl)-4-[2-oxo-3-(3,4,5-trimethoxy-phenyl)-oxazolidin-5-yl]-benzamide] | 7000 | 400 | 1000 | – |
| COc1ccc2[nH]c(SCc3ccc(C(=O)Nc4ccccc4O)cc3)nc2c1 [compound 311] | 900 | 700 | 1000 | – |
| Nc1ccccc1NC(=O)c1ccc(N2CC[C@@H](Oc3cccnc3)C2)cc1 [compound 607, (R)-N-(2-aminophenyl)-4-(3-(pyridin-3-yloxy)pyrrolidin-1-yl)benzamide] | – | – | – | IC50 (HCT116 cells; HCT-116, HCT116 cells): 1000 nM; IC50 (HDAC-1): 639 nM |
| Nc1ccccc1NC(=O)c1ccc(N2CC[C@@H](Nc3ccccc3)C2)cc1 [compound 609, (R)-N-(2-aminophenyl)-4-(3-(phenylamino)pyrrolidin-1-yl)benzamide] | – | – | – | IC50 (HCT116 cells; HCT-116, HCT116 cells): 2000 nM; IC50 (HDAC-1): 1220 nM |
| Nc1ccccc1NC(=O)c1ccc(N2CC[C@H](Oc3ccccc3)C2)cc1 [compound 610, (S)-N-(2-aminophenyl)-4-(3-phenoxypyrrolidin-1-yl)benzamide] | – | – | – | IC50 (HCT116 cells; HCT-116, HCT116 cells): 750 nM; IC50 (HDAC-1): 266 nM |
| COC(=O)c1ccc(O[C@H]2CCN(c3ccc(C(=O)Nc4ccccc4N)cc3)C2)cc1 [compound 611, (S)-methyl-4-(1-(4-(2-aminophenylcarbamoyl)phenyl)pyrrolidin-3-yloxy)benzoate] | – | – | – | IC50 (HCT116 cells; HCT-116, HCT116 cells): 600 nM; IC50 (HDAC-1): 97.6 nM |
| Nc1ccccc1NC(=O)c1ccc(N2CC[C@H](Oc3ccc(C(=O)O)cc3)C2)cc1 [compound 612, (S)-4-(1-(4-(2-aminophenylcarbamoyl)phenyl)pyrrolidin-3-yloxy)benzoic acid] | – | – | – | IC50 (HCT116 cells; HCT-116, HCT116 cells): 39000 nM; IC50 (HDAC-1): 815 nM |
| Nc1ccccc1NC(=O)c1ccc(N2CC[C@H](Oc3ccc(Oc4ccccc4)cc3)C2)cc1 [compound 615, (S)-N-(2-aminophenyl)-4-(3-(4-phenoxyphenoxy)pyrrolidin-1-yl)benzamide] | – | – | – | IC50 (HCT116 cells; HCT-116, HCT116 cells): 4000 nM; IC50 (HDAC-1): 1380 nM |
| Nc1ccccc1NC(=O)c1ccc(N2CC[C@H](Oc3ccc([N+](=O)[O-])cc3)C2)cc1 [compound 616, (S)-N-(2-aminophenyl)-4-(3-(4-nitrophenoxy)pyrrolidin-1-yl)benzamide] | – | – | – | IC50 (HCT116 cells; HCT-116, HCT116 cells): 700 nM; IC50 (HDAC-1): 107 nM |
